Measured values from US10378059B2, “Methods and molecular pharmacodynamic biomarkers for multiple signaling pathways in response to carboxyamidotriazole orotate” (TACTICAL THERAPEUTICS, INC., priority 2013, dated 2019).
“Also recorded” adds a separate entry of the source.

Assays:
[1] = tested on: PI3K pathway; assay: Plucked hair assay, PI3K Signature Score; assay type: cell-based, human; conditions: CTO 8 hr and 24 hr; BEZ235 1 μM 24 hr
Experimental: (§1) Donor hairs were plucked from 5 male donor volunteers, immediately transferred to maintenance medium cultures and exposed to varying doses of CTO equivalent to […], 5 μM, and 10 μM carboxyamidotriazole (CAI). The cultures were either maintained for 8 hrs or 24 hrs. Controls were used, for example, Tarceva®. (EGFR inhibitor) at 1 μM and BEZ235 (PI3K inhibitor) at 1 μM for 24 hrs only. Once in culture hairs were collected at the specified periods for mRNA isolation or protein analysis to ensure quality control. Small amounts of RNA (about up to 500 ng) are extracted from the bulbs at the end of the anagen hairs. Representative cDNA was prepared from the RNA and gene expression levels determined by microarray analysis. Biotin labeling, fragmentation and hybridization to 048 Affymetrix U133 plus 2.0 array was done. […]

[2] = tested on: PI3K/mTOR pathway; assay: Plucked hair assay, PI3K/mTOR Signature Score; assay type: cell-based, human; conditions: CTO 8 hr and 24 hr; BEZ235 1 μM 24 hr
Experimental: as §1

[3] = tested on: early growth response 1 gene product (EGR1); assay: Plucked hair assay, EGR1 expression; assay type: cell-based, human; conditions: for EGR1 regulation: BEZ235 and Tarceva 1 μM, 24 hr
Experimental: Donor hairs were plucked from 5 male donor volunteers, immediately transferred to maintenance medium cultures and exposed to varying doses of CTO equivalent to 2 M, 5 μM, and 10 μM carboxyamidotriazole (CAI). The cultures were either maintained for 8 hrs or 24 hrs. Controls were used, for example, Tarceva®. (EGFR inhibitor) at 1 μM and BEZ235 (PI3K inhibitor) at 1 μM for 24 hrs only. Once in culture hairs were collected at the specified periods for mRNA isolation or protein analysis to ensure quality control. Small amounts of RNA (about up to 500 ng) are extracted from the bulbs at the end of the anagen hairs. Representative cDNA was prepared from the RNA and gene expression levels determined by microarray analysis. Biotin labeling, fragmentation and hybridization to 048 Affymetrix U133 plus 2.0 array was done. Bioinformatic analysis was done to identify CTO induced gene expression changes.

[4] = tested on: RAS pathway; assay: Plucked hair assay, RAS pathway Signature Score; assay type: cell-based, human; conditions: different doses of CTO, 8 hr and 24 hr; most obvious at 8 hrs
Experimental: as §1

[5] = tested on: Growth Factor Signature (GFS) pathway; assay: Plucked hair assay, Growth Factor Signature Score; assay type: cell-based, human; conditions: different doses of CTO, 8 hr and 24 hr; most obvious at 8 hrs
Experimental: as §1

[6] = tested on: MEK pathway; assay: Plucked hair assay, MEK Signature Score; assay type: cell-based, human; conditions: all CTO treatments at 8 hrs and 24 hrs
Experimental: as §1

[7] = tested on: HDAC pathway; assay: Plucked hair assay, HDAC Signature Score; assay type: cell-based, human; conditions: different doses of CTO, 8 hr and 24 hr
Experimental: as §1

[8] = tested on: NOTCH pathway; assay: Plucked hair assay, NOTCH Signature Score; assay type: cell-based, human; conditions: different doses of CTO, 8 hr and 24 hr
Experimental: as §1

[9] = tested on: WNT β-catenin pathway; assay: Plucked hair assay, WNT β-catenin Signature Score; assay type: cell-based, human; conditions: 24 hrs exposure to CTO
Experimental: as §1

[10] = tested on: HSP90 pathway; assay: Plucked hair assay, HSP90 Signature Score; assay type: cell-based, human; conditions: different doses of CTO, 8 hr and 24 hr; dose dependent
Experimental: as §1

[11] = tested on: EGFR pathway; assay: Plucked hair assay, EGFR Signature Score; assay type: cell-based, human; conditions: all doses of CTO and time points; Tarceva 1 μM 24 hr
Experimental: as §1

[12] = tested on: P53 pathway; assay: Plucked hair assay, P53 Signature Score; assay type: cell-based, human; conditions: all doses of CTO, 8 hr and 24 hr
Experimental: as §1

[13] = tested on: CAI IPA pathway; assay: Plucked hair assay, CAI IPA Signature Score; assay type: cell-based, human; conditions: different doses of CTO, 8 hr and 24 hr; except at 10 μM
Experimental: as §1, with “done. Bioinformatic analysis was done to identify CTO induced gene expression changes.” for “done.”

[14] = tested on: CAI Ex vivo pathway; assay: Plucked hair assay, CAI Ex vivo Signature Score; assay type: cell-based, human; conditions: different doses of CTO, 8 hr and 24 hr; tissue specific direction of change
Experimental: as §1, with “done. Bioinformatic analysis was done to identify CTO induced gene expression changes.” for “done.”

[15] = tested on: non-voltage dependent calcium signaling genes; assay: Plucked hair assay, non-voltage dependent calcium signaling Signature Score; assay type: cell-based, human; conditions: across CTO treatment; literature determined regulation and ANOVA determined set
Experimental: as §1, with “done. Bioinformatic analysis was done to identify CTO induced gene expression changes.” for “done.”

[16] = tested on: Canonical Calcium signaling; assay: Plucked hair assay, Canonical Calcium signaling Signature Score (KEGG and IPA); assay type: cell-based, human; conditions: KEGG Calcium Signaling Pathway and IPA predicted regulation
Experimental: Canonical calcium signaling was analyzed using the KEGG Calcium Signaling Pathway and IPA to predict regulation of canonical calcium signaling. […] Using ANOVA to filter for informative genes (FDR<0.05 & 1.5) it was noted that suppression of canonical calcium genes occurred across CTO treatment, however this only represented 7/68 canonical pathway genes.
as §1, with “done. Bioinformatic analysis was done to identify CTO induced gene expression changes.” for “done.”

[17] = tested on: carcinoembryonic antigen-related cell adhesion molecule (CEACAM1); assay: Plucked hair assay, CEACAM1 expression; assay type: cell-based, human
Experimental: (§2) Donor hairs were plucked from 5 male donor volunteers, immediately transferred to maintenance medium cultures and exposed to varying doses of CTO equivalent to […], 5 μM, and 10 μM carboxyamidotriazole (CAI). The cultures were either maintained for 8 hrs or 24 hrs. Controls were used, for example, Tarceva®. (EGFR inhibitor) at 1 μM and BEZ235 (PI3K inhibitor) at 1 μM for 24 hrs only. Once in culture hairs were collected at the specified periods for mRNA isolation or protein analysis to ensure quality control. Small amounts of RNA (about up to 500 ng) are extracted from the bulbs at the end of the anagen hairs. Representative cDNA was prepared from the RNA and gene expression levels determined by microarray analysis. Biotin labeling, fragmentation and hybridization to 048 Affymetrix U133 plus 2.0 array was done. Bioinformatic analysis was done to identify CTO induced gene expression changes.

[18] = tested on: Dystonin; assay: Plucked hair assay, Dystonin expression; assay type: cell-based, human
Experimental: as §2

[19] = tested on: TGF-β signaling; assay: Plucked hair assay, TGF-β signaling; assay type: cell-based, human
Experimental: as §2

[20] = tested on: cancer patients with different tumor types; assay type: in vivo; conditions: CTO given alone
From the text: Thus enormous efforts are directed to the development of molecular pharmacodynamics biomarkers of signaling outputs of CTO to design combinatorial regimens against molecular targets in different types of cancers. Current methods for assessing pathway activation in tumors involve the measurement of the drug targets, known oncogenes or known tumor suppressors. However, one pathway can be activated at multiple points so it is not feasible to assess pathway activation by evaluating just known cancer associated genes.

[21] = tested on: ex vivo cultured human anagen hairs; assay: Plucked hair biomarker platform: global transcriptional response by microarray (probe list, Table 1); conditions: for transcriptional response (differential probes): CTO equivalent to 2, 5, 10 μM CAI, 8 hr and 24 hr, BEZ235 and Tarceva 1 μM, 24 hr

Cn1c(=O)n(-c2ccc(C(C)(C)C#N)cc2)c2c3cc(-c4cnc5ccccc5c4)ccc3ncc21 [BEZ235, reference compound]
PI3K signature [1]: Strong suppression | PI3K/mTOR signature [2]: Strong suppression | EGR1 regulation [3]: suppressed

NC(=O)c1nnn(Cc2cc(Cl)c(C(=O)c3ccc(Cl)cc3)c(Cl)c2)c1N.O=C(O)c1cc(=O)[nH]c(=O)[nH]1 [CTO, carboxyamidotriazole orotate]
RAS signature [4]: modest down regulation | Growth Factor signature (GFS) [5]: modest down regulation | MEKi signature [6]: strongly suppressed; also recorded: strong inhibition | HDAC signature [7]: strongly suppressed; also recorded: weak suppression | Notch signature [8]: no suppression; also recorded: no activity | WNT β-catenin signature [9]: modes suppression; also recorded: inhibitory at 24 hr | HSP90 signature [10]: strong suppression | EGFR signature [11]: strongly suppressed; also recorded: very strong suppression; also recorded: stronger than that in Tarceva® at all doses of CTO and time points | P53 signature [12]: stabilized; also recorded: induction; also recorded: induced | CAI signature (IPA, 29 genes) [13]: some suppression | IPA CAI list, ex vivo 14 gene set [14]: strong dose dependent suppression | non-voltage dependent calcium genes signature [15]: strongly suppressed; also recorded: strong suppression | canonical calcium signaling pathway signature [16]: No significant suppression | EGR1 up regulation ([3]; varying doses of CTO at 8 hr and 24 hrs): 6 fold | CEACAM1 regulation [17]: down regulated | Dystonin down regulation [18]: 60 fold | TGF-β signaling [19]: inhibited | tumor response ([20]; cancer patients with different genomic mutations): stable disease or partial response showing tumor shrinkage | safety and tolerability ([20]; cancer patients, maximum tolerated dose not determined): safe and tolerable | net result probes overlapping between the 8 hr and 24 hr lists ([21]; 442 unique annotated genes): 558 | probes observed ([21]; 8 hours): 1440 | probes observed ([21]; 24 hrs): 2961 | transcriptional response (differential probes) [21]: differential probes increased in a dose related manner; also recorded: greatest effect transcriptionally | fold range of the overlapping probes ([21]; high dose CTO/24 hr): −75 to +33 fold

C#Cc1cccc(Nc2ncnc3cc(OCCOC)c(OCCOC)cc23)c1 [Tarceva®, erlotinib, reference compound]
EGR1 regulation [3]: suppressed | CEACAM1 regulation [17]: down regulated | transcriptional response (differential probes) [21]: less differential probes than CTO or BEZ235
